Experimental data from US9976183B2, “Biomarkers for cancers responsive to modulators of HEC1 activity” (TAIVEX THERAPEUTICS CORPORATION, priority 2011, dated 2018).

Assays:
Assay type in all cases: cell-based
[1] = system: apoptotic caspases in resistant cell line (A549); assay: Immunoblot of apoptotic and anti-apoptotic markers; conditions: A549, immunoblot (FIG. 5C, FIG. 5D)
Description: (§1) Immunoblots: Cell lysates were by incubation of cells in radioimmunoprecipitation assay (RIPA) buffer (50 mM Tris-HCl, pH7.4, 150 mM NaCl, 1% NP40, 0.25% DOC, 0.1% SDS, 1 mM NaVO4, 1 mM EDTA, 1 ug/ml leupeptin, 1 μg/ml pepstatin) or 2.5× sample buffer (50 mM Tris-HCl, pH6.8, 1% SDS, 2.5% BME, 7.5% Glycerol, Bromophenol blue). Tissue samples were immersed in RIPA buffer, disrupted with a homogenizer, and centrifuged to clarify. Samples were then subjected to SDS-PAGE, blotted onto immunoblotting membranes, and incubated with primary antibodies in 3% BSA-TBST. Horseradish peroxidase—conjugated secondary antibodies were used for protein detection by enhanced chemiluminescence (Millipore, Billerica, Mass. 01821 USA). The following antibodies were used for Western blotting: anti-Rb monoclonal antibody 1F8 (Abcam, Cambridge, Mass. 02139-1517 USA); anti-p53 monoclonal antibody (Santa Cruz Biotechnology, Santa Cruz, Calif. 95060 USA); anti-β-actin monoclonal antibody AC-15 (Sigma Aldrich, St. Louis, Mo., USA).

[2] = system: apoptotic caspases in drug-responsive cells (HeLa); assay: Immunoblot of apoptotic and anti-apoptotic markers; conditions: immunoblot (FIG. 5B, FIG. 5D)
Description: as §1

[3] = system: cells with mutated p53 (MDA-MB-231); assay: p53 siRNA knockdown, sensitivity to Hec1 inhibitor (MTS); conditions: siRNA directed to p53 (sip53)
Description: (§2) Gene silencing: Cells were plated into the wells of 96 well plates in appropriate cell numbers and transfected by the siPort NeoFx transfection method (Life Technologies, Carlsbad, Calif. 92008 USA) according to manufacturer instructions, maintained for 24 hours, then treated with drug. Cells were incubated in drug treated medium for 48 hours then analyzed by MTS assay. Control siRNA Life Technologies, Carlsbad, Calif. 92008; Cell Signaling Technology, Danvers, Mass. 01923 USA; and Santa Cruz Biotechnology, Santa Cruz, Calif. 95060 USA), Rb siRNA (#1: Life Technologies, Carlsbad, Calif. 92008 USA; #2: Santa Cruz Biotechnology, Santa Cruz, Calif. 95060 USA) and p53 siRNA (#1: Cell Signaling Technology, Danvers, Mass. 01923 USA; #2: Cell Signaling Technology, Danvers, Mass. 01923 USA) were used. Cells were treated with drugs 24 hours after seeding and incubated with the drugs for 48 hours before MTS assay. The MTS assay was performed according to the manufacturer's instructions (Promega, Madison, Wis. 53711 USA).
(§3) Cells were analyzed for viability and cellular sensitivity expressed in GI50 (nM). RNA from transfected cells were also analyzed for p53 RNA level by quantitative real time PCR. […] Cellular sensitivity is expressed as percent growth inhibition relative to non-drug-treated cells. […]

[4] = system: wild-type p53 cells (A549, HCT116); assay: as above; conditions: siRNA directed to p53 (sip53)
Description: as §2, §3

[5] = system: Nek2 in resistant cell line (A549); assay: Nek2 expression by immunoblotting; conditions: A549, 48 hours, immunoblot (FIG. 6B)
Description: as §1
(§4) To investigate this possibility, drug-responsive (HeLa, MDA-MB-468, HCT116) and resistant cells (A549) were synchronized by starvation and expression of Hec1 and Nek2 characterized at 1(G1), 27(G27), 32(G32), and 48(G48) hours. Differential expression patterns between Hec1 and Nek2 are apparent, indicating differences in regulation of Hec1/Nek2 pathways (FIG. 6A). […]

[6] = system: Nek2 in sensitive cell lines (HeLa, HCT116); assay: Nek2 expression by immunoblotting; conditions: 48 hours, immunoblot (FIG. 6B)
Description: as §1, §4

PCL/PRF/5 = assay: Synergy of Hec1 inhibitor with cytotoxic drug (combination index, MTS); set-up: key: CI = (CA,X/ICx,A)+(CB,X/ICx,B) at x% drug effect
Description: (§5) Synergy: GI50s for selected drugs were determined and used to calculate a concentration ratio for use synergy assays with Hec1 inhibitors. Cells were treated with drugs 24 hours after being seeded in appropriate seeding numbers into 96 well plates containing low glucose DME with 10% FBS. […] Cell viability was determined by MTS assay using a CellTiter 96® Aqueous non-radioactive cell proliferation assay system (Promega, Madison, Wis. 53711 USA) according to the manufacturer's instructions. Optical density was determined using a Bio-Tek 340 spectrophotometer (Bio-Tek, Winooski, Vt. 05404) and were then processed using Excel (Microsoft, Redmond, Wash. 98052-7329) and GraphPad Prism 5 linear regression software (GraphPad Software, La Jolla, Calif. 92037 USA) to determine concentration-response curves for calculating relative GI50s. Synergy was determined by calculating a combination index value using the formula CI (combination index)=(CA,X/ICx,A)+(CB,X/ICx,B), where CA,X and CB,X are the concentrations of drug A and drug B used in combination to achieve x % drug effect. ICx,A and ICx,B are the concentrations for single agents to achieve the same effect.
(§6) Hec1 inhibitor-responsive cancer cells used for screening were treated with a mixture of Hec1 inhibitor and select anti-cancer drug at appropriate concentration ratios and evaluated for cell viability.

HepG2 = assay: as above; set-up: key: CI = (CA,X/ICx,A)+(CB,X/ICx,B) at x% drug effect
Description: as §5, §6

[7] = in combination with doxorubicin

effect of p53 silencing on cellular sensitivity (GI50) [3]	effect of p53 silencing on cellular sensitivity (GI50) [4]	SMILES	activation of apoptotic caspases [1]	activation of apoptotic caspases [2]	Nek2 expression [5]	Nek2 expression [6]	Combination Index (PCL/PRF/5; in combination with KX01)	Combination Index (PCL/PRF/5; in combination with Taxol)	Combination Index (PCL/PRF/5; [7])	Combination Index (PCL/PRF/5; in combination with sorafenib)	Combination Index (PCL/PRF/5; in combination with topotecan)	Combination Index (HepG2; in combination with KX01)	Combination Index (HepG2; [7])	Combination Index (HepG2; in combination with sorafenib)	Combination Index (HepG2; in combination with topotecan)
not observed	decreased GI50	COc1ccc(Oc2cc(C)c(-c3csc(NC(=O)c4ccncc4)n3)c(C)c2)cc1 [compound 101001, N-(4-(4-(4-methoxyphenoxy)-2,6-dimethylphenyl)thiazol-2-yl)isonicotinamide]	did not show a similar response	activation of apoptotic caspases											
		COCCOc1cnc(Sc2cc(C)c(-c3csc(NC(=O)c4ccncc4)n3)c(C)c2)cn1 [compound 110095, N-(4-(4-(5-(2-methoxyethoxy)pyrazin-2-ylthio)-2,6-dimethylphenyl)thiazol-2-yl)isonicotinamide]			this effect is not seen	degradation of Nek2	1.08	0.81	2.31	1.41	2.83	2.32	3.00	1.88	3.03
